Experimental data as given in US5326882A, “Chemiluminescent 3-(substituted Adamant-2'-Ylidene) 1,2-dioxetanes” (Tropix, Inc., priority 1992, dated 1994).

Key:
[1] = system: alkaline phosphatase ("AP"); settings: cited from earlier work
[2] = target: T1, avidin-alkaline phosphatase conjugate (Bos taurus, UniProt P19111); test: Dot blot of biotinylated pBr 322 35-mer on nylon membrane, instant film (Example XIV); settings: 0.25 mM, pH 10, nylon membrane, FIG. 11
T1 construct: purchased Sigma, Inc., St. Louis, Mo
Method: A strip of neutral BIODYNE A nylon membrane (Pall Corporation, Glen Cove, N.Y.) was dotted twice (side-by-side) with the following concentrations of biotinylated pBr 322 35-mer oligonucleotide probe (Synthetic Genetics, San Diego, Calif.):
Next, the membrane was blocked in 0.2% casein/0.1% Tween 20 detergent in aqueous phosphate buffered saline solution (PBS) for 1 hour, following which 1/5000 diluted avidin-alkaline phosphatase conjugate (Sigma, Inc., St. Louis, Mo.) in 0.2% casein in PBS was added. The membrane was then incubated for 30 minutes, washed twice (for 5 minutes each time) in 0.2% casein/0.1% Tween 20 detergent in PBS, washed four times (for 5 minutes each time) in 0.3% Tween 20 detergent in PBS, and twice (for 5 minutes each time) in aqueous 0.1M diethanolamine containing 1 mM magnesium chloride, pH 10.0.
The membrane was then cut up the middle to give two strips, each bearing one set of dots. One of the strips was incubated for 5 minutes in aqueous AMPPD solution (0.25 mM in 0.1M diethanolamine containing 1 mM magnesium chloride, pH 10), the other for 5 minutes in the corresponding chloroadamant-2'-ylidene compound (0.25 mM in the same buffer). The two strips were then placed in camera luminometers and exposed on Polaroid Type 612 instant black and white film.

T1 sequence (P19111 20-506 limits assumed): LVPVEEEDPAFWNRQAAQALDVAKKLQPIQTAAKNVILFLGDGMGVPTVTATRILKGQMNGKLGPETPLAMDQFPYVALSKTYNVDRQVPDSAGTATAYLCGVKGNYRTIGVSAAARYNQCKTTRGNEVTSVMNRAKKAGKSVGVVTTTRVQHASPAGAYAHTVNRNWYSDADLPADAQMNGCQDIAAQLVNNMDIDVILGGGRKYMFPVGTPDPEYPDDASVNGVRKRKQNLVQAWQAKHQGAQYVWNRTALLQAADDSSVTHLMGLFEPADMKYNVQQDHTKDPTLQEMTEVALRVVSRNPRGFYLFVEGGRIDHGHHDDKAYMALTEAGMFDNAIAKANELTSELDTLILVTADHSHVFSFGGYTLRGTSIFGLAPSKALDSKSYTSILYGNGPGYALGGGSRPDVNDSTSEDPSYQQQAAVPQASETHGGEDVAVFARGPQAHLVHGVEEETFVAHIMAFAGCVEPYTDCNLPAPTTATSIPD
T1 sequence (P02701 25-152 partner): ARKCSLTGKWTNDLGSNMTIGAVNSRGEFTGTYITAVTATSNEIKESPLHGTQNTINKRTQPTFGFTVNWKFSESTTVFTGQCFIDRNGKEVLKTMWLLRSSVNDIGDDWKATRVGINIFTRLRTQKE

Row | SMILES | moles whose phosphoryloxy group is cleaved by a single mole of alkaline phosphatase per second [1] | chemiluminescence intensity as compared to AMPPD [2]
1 | COC1(c2cccc(OP(=O)(O)O)c2)OOC12C1CC3CC(C1)CC2C3 (centres unmarked) [AMPPD, 3-(4-methoxyspiro[1,2-dioxetane-3,2'-triyclo[3.3.1.1^3,7]decan]-4-yl)phenyl phosphate, reference compound] | 1,000-5,000 moles per second | 
2 | COC1(c2cccc(OP(=O)(O)O)c2)OOC12C1CC3CC2CC(Cl)(C3)C1 (centres unmarked) [Cl-AMPPD, disodium 3-(4-methoxyspiro-[1,2-dioxetane-3,2'-(5'-chloro)tricyclo[3.3.1.1^3,7]decan]-4-yl) phenyl phosphate] |  | improved chemiluminescence intensity
